{"source": "patent US10869848B2", "about": "(priority 2014, dated 2020)", "key": {"[1]": {"assay": "Visual solubility of carmustine in alcoholic solvents", "type": "physicochemical"}, "[2]": {"details": "alcohol such as tertiary butanol; cited from earlier work"}, "[3]": {"assay": "Stability of carmustine solution in TBA or dehydrated ethanol", "type": "physicochemical", "details": "storage at room temperature"}}}
{"compound": "O=NN(CCCl)C(=O)NCCCl", "note": "[Carmustine, 1,3-bis (2-chloroethyl)-1-nitrosourea]", "values": [{"measurement": "precipitation on storage, TBA solution", "setting": "[1]; TBA solution stored at about 2 to about 8° C.", "value": "Neither of the solutions showed any sign of precipitation"}, {"measurement": "solubility in TBA", "setting": "[1]; TBA, room temperature, visually determined", "value": "> 1", "unit": "g per mL"}, {"measurement": "precipitation on storage, dehydrated ethanol solution", "setting": "[1]; dehydrated ethanol solution stored at about 2 to about 8° C.", "value": "Neither of the solutions showed any sign of precipitation"}, {"measurement": "solubility in dehydrated ethanol", "setting": "[1]; dehydrated ethanol, room temperature, visually determined", "value": "> 1", "unit": "g per mL"}, {"measurement": "solubility in alcohol, dichloromethane and ether", "setting": "[2]", "value": "very soluble"}, {"measurement": "time solution is stable, TBA", "setting": "[3]; solution in TBA", "value": "at least 24 hrs"}, {"measurement": "time solution is stable, dehydrated ethanol", "setting": "[3]; solution in dehydrated ethanol", "value": "at least 24 hrs"}]}
